Reference: ChEMBL document CHEMBL1137233, “Synthesis and cardiac effects of 3,4-dihydropyrimidin-2(1H)-one-5 carboxylates” (Bioorg Med Chem Lett, 2006)
Active and inactive are the calls of the source.

What was measured:
Assay type in all cases: functional
Riparian frogs [1] = test: Negative chronotropic action measured as decrease in rate of contraction in isolated perfused frog heart; details: Hoplobatrachus tigerinus
Riparian frogs [2] = test: Positive inotropic action measured as increase in force of contraction in isolated perfused frog heart; details: Hoplobatrachus tigerinus
Riparian frogs [3] = test: Increase in cardiac output in isolated perfused frog heart; details: Hoplobatrachus tigerinus
Riparian frogs [4] = test: Positive inotropic action measured as increase in force of contraction in isolated perfused frog heart at 1 mg/ml; details: Hoplobatrachus tigerinus
Riparian frogs [5] = test: Positive inotropic action measured as increase in force of contraction in isolated perfused frog heart at 500 ug/ml; details: Hoplobatrachus tigerinus
Riparian frogs [6] = test: Increase in cardiac output in isolated perfused frog heart at 500 ug/ml; details: Hoplobatrachus tigerinus
Riparian frogs [7] = test: Increase in cardiac output in isolated perfused frog heart at 1 mg/ml; details: Hoplobatrachus tigerinus
Riparian frogs [8] = test: Negative inotropic action in isolated perfused frog heart; details: Hoplobatrachus tigerinus
Riparian frogs [9] = test: Decrease in cardiac output in isolated perfused frog heart; details: Hoplobatrachus tigerinus
[10] = target: Adrenergic receptor beta (Homo sapiens) (UniProt P08588+P07550+P13945); test: Antagonist activity at adrenergic beta receptor assessed as inhibition of adrenalin effect
Riparian frogs [11] = test: Effect on cardiac output in isolated perfused frog heart; details: Ranidae
Riparian frogs [12] = test: Effect on rate of contraction in isolated perfused frog heart; details: Hoplobatrachus tigerinus
Riparian frogs [13] = test: Effect on force of contraction in isolated perfused frog heart; details: Hoplobatrachus tigerinus

Measured: Activity

CC1=C(C(=O)Oc2ccccc2)C(c2cccc(O)c2)NC(=O)N1 (stereo not given)
active: Riparian frogs [1] Dose-dependent effect | Riparian frogs [2] Dose-dependent effect | Riparian frogs [3]

CCOC(=O)C1=C(C)NC(=O)NC1C(C)C (stereo not given)
active: Riparian frogs [1] Dose-dependent effect | Riparian frogs [2] Dose-dependent effect | Riparian frogs [3]

CCOC(=O)C1=C(C)NC(=O)NC1c1ccc(-c2ccccc2)cc1 (stereo not given)
active: Riparian frogs [4] | Riparian frogs [5] | Riparian frogs [6] | Riparian frogs [7]

COC(=O)C1=C(C)NC(=O)NC1c1ccccc1Cl (stereo not given)
active: Riparian frogs [8] | Riparian frogs [9] | [10] | Riparian frogs [1]

CCOC(=O)C1=C(C)NC(=O)NC1c1ccc(OC)cc1 (stereo not given)
active: Riparian frogs [1] | Riparian frogs [2] | Riparian frogs [3]

CCOC(=O)C1=C(C)NC(=O)NC1c1ccccc1[N+](=O)[O-] (stereo not given)
inactive: Riparian frogs [11] | Riparian frogs [12] | Riparian frogs [13]

CCOC(=O)C1=C(C)NC(=O)NC1c1cccc(O)c1 (stereo not given)
active: Riparian frogs [1] Dose-dependent effect | Riparian frogs [2] Dose-dependent effect | Riparian frogs [3]

CCOC(=O)C1=C(C)NC(=O)NC1c1ccccc1Cl (stereo not given)
active: Riparian frogs [8] | Riparian frogs [9] | [10] | Riparian frogs [1]

CCOC(=O)C1=C(C)NC(=O)NC1c1ccc(O)cc1 (stereo not given)
active: Riparian frogs [1] Dose-dependent effect | Riparian frogs [2] Dose-dependent effect | Riparian frogs [3]
